Experimental data from patent US8178506B2, “Oligomeric compounds and compositions for use in modulation of small non-coding RNAs” (Regulus Therapeutics Inc., priority 2003, dated 2012).
In the oligonucleotide strings, read from the 5' end, every base follows the letter of its sugar. An asterisk marks phosphorothioate; unmarked linkages are phosphodiester. Other units and linkages are bracketed, terminal groups are in braces. A string of capitals states the bases alone. e = 2'-O-(2-methoxyethyl) (MOE); [5mC] = 5-methylcytosine

Test system: mir-143 binding sites
Assay: pGL3-mir-143 sensor luciferase assay in HeLa cells
Type: cell-based, human
Conditions: HeLa cells, pGL3-mir-143 sensor with pCR3-pri-mir-143 (430)
Excerpt: In one embodiment, an expression system based on the pGL3-Control (Promega Corp., Madison Wis.) vector containing a CMV promoter controlling expression of a luciferase reporter sequence was used in transient transfections of HeLa cells with plasmids expressing miRNA or pri-miRNA mimics. To assess the ability of miRNA mimics to bind and regulate the expression of the luciferase reporter gene, two reporter plasmids were constructed: 1) a synthetic DNA fragment comprising two sites perfectly complementary to mir-143 were inserted into the pGL3-Control luciferase reporter vector, to create the pGL3-mir-143 sensor plasmid, and 2) a DNA fragment comprising the 3′-UTR of the LIM domain only 4 (LMO4) gene (predicted to be regulated by mir-143) was inserted into pGL3-Control to create pGL3-LMO4; this fragment was PCR-amplified using a primer beginning at position 1261 of the LMO4 sequence (GenBank Accession NM_006769.2, incorporated herein as SEQ ID: 809) and the downstream primer hybridizing to the poly-A tail. In each of these plasmids, the target site was placed downstream of the luciferase coding sequence and upstream of the polyadenylation signal in the 3′-UTR of the luciferase reporter vector. The unmodified pGL3-Control luciferase reporter vector was used as a control.
HeLa cells were routinely cultured and passaged as described, and on the day before transfection with expression or reporter plasmids, the HeLa cells were seeded onto 24-well plates 50,000 cells/well. Cells were transfected according to standard published procedures with various combinations of plasmids using 2 μg Lipofectamine™ 2000 Reagent (Invitrogen) per μg of plasmid DNA, or, when transfecting oligomeric compounds, 1.25 μg of Lipofectamine™ 2000 Reagent per 100 nM oligonucleotide or double-stranded RNA. The luciferase signal in each well was normalized to the Renilla luciferase (RL) activity produced from a co-transfected plasmid, pRL-CMV, which was transfected at 0.5 μg per well. Cells were treated at various dosages (4 nM, 20 nM, and 100 nM) with the following oligomeric compound mimics: 1) “ds-mir-143,” 2) “ds-Control,” 3) “pCR3-pri-mir-143,” or 4) “pri-mir-control,” as described supra. In accordance with methods described in Example 12, supra, a luciferase assay was performed 48-hours after transfection. Briefly, cells were lysed in passive lysis buffer (PLB; Promega), and 20 ul of the lysate was then assayed for RL activity using a Dual Luciferase Assay kit (Promega) according to the manufacturer's protocol. The results below are an average of three trials and are presented as percent pGL3-Control luciferase expression normalized to pRL-CMV expression (RL).
In another embodiment, HeLa cells were transfected with 0.03 μg pGL3-mir-143 sensor plasmid and 0.01 μg pRL-CMV plasmid, and, in addition, (except those samples described below as “without mir-143 pri-miRNA,”) were also transfected with 0.01 μg of an expression plasmid designed to express a mir-143 pri-miRNA mimic comprising a larger 430-nt fragment of the mir-143 primary miRNA transcript, referred to as “pCR3-pri-mir-143 (430)” ([…]; SEQ ID NO: 871). […] To further evaluate the ability of the mir-143 pri-miRNA mimic to inhibit luciferase activity from the sensor plasmid, and to assess the ability of oligomeric compounds to interfere with the inhibition of pGL3-mir-143 sensor luciferase expression by the mir-143 pri-miRNA mimic, pGL3-mir-143 sensor-expressing HeLa cells treated with pCR3-pri-mir-143 (430) were additionally treated with varying concentrations (0-, 6.7- or 20 nM) of the following oligomeric compounds: 1) ISIS Number 327901 (SEQ ID NO: 319), a uniform 2′-MOE oligomeric compound targeting mir-143; 2) ISIS Number 342673 (SEQ ID NO: 758), a uniform 2′-MOE scrambled control; or 3) ISIS Number 327924 (SEQ ID NO: 342) targeting an unrelated miRNA (mir-129-2). […]

**Q.** With “327901 (antisense eT*eG*eA*eG*e[5mC]*eT*eA*e[5mC]*eA*eG*eT*eG*e[5mC]*eT*eT*e[5mC]*eA*eT*e[5mC]*eT*e[5mC]*eA) [compound 327901]” as the substance, how does the Relative luciferase activity (6.7 nM) read?
**A.** 4.0

**Q.** And the Relative luciferase activity (20 nM)?
**A.** 6.4

**Q.** What does the source list for “342673 (antisense eA*eG*eA*e[5mC]*eT*eA*eG*e[5mC]*eG*eG*eT*eA*eT*e[5mC]*eT*eT*eT*eA*eT*e[5mC]*e[5mC]*e[5mC]) [compound 342673]”?
**A.** Relative luciferase activity (6.7 nM): 1.3; Relative luciferase activity (20 nM): 1.5
